Molecules are shown by their SMILES.

The nature of this data set: gradient 5% acetonitrile 3 min, to 50% in 2 min, to 85% in 15 min, held 3 min, 100 µL/min. Conditions: column: Zorbax Extend-C18 2.1 x 50 mm; eluents: water / acetonitrile, 0.1% formic acid. In a few lines:
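Over 3 months, pure standards in mixtures of ~100 molecules were run by HPLC coupled to a quadrupole time-of-flight mass spectrometer in positive and negative ionization mode. The column was a Zorbax Extend-C18 (2.1 × 50 mm, 1.8 μm) at 100 μL/min, eluted with water and acetonitrile each holding 0.1% formic acid, with 40 μL dead and 900 μL dwell volumes. Retention time was determined from adduct peaks chosen by software and checked manually.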
The compound `Cc1ccccc1-c1noc(Cn2cnc3c(cnn3-c3cc(Cl)ccc3C)c2=O)n1` displayed an RP-LC retention time of 1100 s.
The compound `CCOC(=O)c1cccc(NC(=O)C2CCN(C(=O)C3Sc4ccccc4NC3=O)CC2)c1` (centres undefined) came in with an RP-LC retention time of 812 s.
For the compound `CC(=O)Nc1ccc(C2(C(=O)NCc3ccc(F)cc3Cl)CCC2)cc1`, the RP-LC retention time worked out at 804 s.
Compound `CCOC(=O)c1ccc(NC(=O)c2cc3sc(Cl)cc3n2CC)cc1` yielded an RP-LC retention time of 1260 s.
For the compound `CCn1c(=O)sc2cc(S(=O)(=O)N3CCC(C(=O)Nc4ccccc4OC)CC3)ccc21`, the RP-LC retention time came out at 917 s.
On to `Cc1nc(-c2ccc(OC3CCN(C(=O)NC4CCCCC4)C3)cc2)no1` (centres undefined), for which the RP-LC retention time stood at 845 s.
The compound `Cc1ccc(CN2C[C@@H]3C(=O)N(CCc4ccccc4)C(=O)[C@@H]3C2)cc1` yielded an RP-LC retention time of 760 s.
`O=c1c2cc(-c3ccc(F)cc3)nn2cnn1Cc1nc(-c2cccc(C(F)(F)F)c2)no1` gave an RP-LC retention time of 1200 s.
Compound `CSc1cccc(NC(=O)CSc2ccc(N3CCCC(C(=O)NC4CC4)C3)nn2)c1` (centres undefined) displayed an RP-LC retention time of 682 s.
Consider `Cc1ccc(NC(=O)Cn2c(C)nc3onc(C)c3c2=O)cc1C`, for which the RP-LC retention time was found to be 756 s.
In the case of `CC(C)N1C(=O)c2cccnc2Sc2cc(NC(=O)c3cccs3)ccc21`, the RP-LC retention time is 837 s.
Compound `Cc1ccc(NC(=O)N(C)CC2CCOCC2)cc1C` displayed an RP-LC retention time of 795 s.
`CN(c1nccn2c(=O)n(CC(=O)Nc3ccc(F)c(Cl)c3)nc12)C1CCCCC1` showed an RP-LC retention time of 819 s.
The compound `CCn1cc(CN2CCCC(Cn3cc(COC)nn3)C2)c2ccccc21` (centres undefined) returned an RP-LC retention time of 565 s.
For `COCCN1CCn2cc(S(=O)(=O)Nc3ccc(C)c(F)c3)cc2C1=O`, the RP-LC retention time turned out to be 740 s.
The compound `CCCn1cc(S(=O)(=O)Nc2ccc(Cl)cc2F)c2cccnc21` returned an RP-LC retention time of 980 s.
As for `O=c1ccc2cc(S(=O)(=O)N3CCN(c4ccccn4)CC3)ccc2[nH]1`, the figure is 581 s; as for `Cc1nn(-c2ccccc2)c(C)c1CCc1nn2c(-c3ccccc3F)nnc2s1`, 865 s; as for `CC(C)CN1C(=O)c2cccn2CC1C(=O)NC1CCCCCC1` (centres undefined), 812 s.
Then `CCSc1nnc(-c2nn(C)c3c2CN(C(=O)c2cc(C)ccc2C)CC3)n1C`, with 811 s; and `COc1ncc(C(=O)Nc2ccc(F)cc2F)c(C)n1`, with 724 s.
As for `O=C(Cc1c[nH]c2ccccc12)N1CCC(NS(=O)(=O)c2ccc(F)cc2)CC1`, the figure is 781 s; as for `O=C(O)c1ccc(NC(=O)c2ccc([N+](=O)[O-])cc2Cl)cc1`, 719 s; as for `Cc1ccc(C)c(S(=O)(=O)N2CCc3c(c(-c4nnc(-c5ccc(F)cc5)o4)nn3C)C2)c1`, 1040 s.
Consider `COc1cccc(NS(=O)(=O)c2cc(-c3cc(C(F)(F)F)on3)sc2C)c1`, for which the RP-LC retention time was determined as 1110 s.
`CC(C)n1c(CCNC(=O)c2ccccc2Cl)nc2cccnc21` had an RP-LC retention time of 651 s.
`O=C(Nc1cccc(F)c1)C1CCCN(c2ccc3cc(S(=O)(=O)N4CCCCC4)ccc3n2)C1` (centres undefined) returned an RP-LC retention time of 908 s.
Regarding `COC(=O)c1c(C)[nH]c(C(=O)N2CCCC(C(=O)NCc3cccc(Cl)c3)C2)c1C` (centres undefined), the RP-LC retention time amounted to 798 s.
Then `COc1ccc(OC)c(CNC(=O)C2CCCN(c3ccc(=O)n(-c4ccc(F)cc4)n3)C2)c1` (centres undefined), with 812 s; and `CS(=O)(=O)N1CCC(C(=O)N2CCCCC2)Oc2ccc(Cl)cc21` (centres undefined), with 793 s; and `Cc1noc(C)c1CNC(=O)NC1CCCCC1`, with 706 s.
`COc1ccc(C(=O)N2CCc3cc(-c4csc(C)n4)ccc32)cc1OC` registered an RP-LC retention time of 862 s.
Compound `CN(C)[C@@H]1CN(C(=O)c2n[nH]c3ccccc23)C[C@H]1CO` yielded an RP-LC retention time of 552 s.
For the compound `Cc1ccc(CNC(=O)C2CCCN(c3nc4ccccc4n(Cc4ccccc4)c3=O)C2)o1` (centres undefined), the RP-LC retention time was found to be 1150 s.
On to `CCC(C)c1ccccc1NC(=O)C1CCN(C(=O)C(C)(C)C)CC1` (centres undefined), for which the RP-LC retention time came to 829 s.
In turn, `CCN(Cc1ccccc1)C(=O)c1cn2cc(Cl)ccc2n1` yielded an RP-LC retention time of 860 s.
`Cc1cc(C)c(S(=O)(=O)Nc2ccc(Cn3cncn3)cc2)c(C)c1` displayed an RP-LC retention time of 798 s.
`CN1C(=O)C(C)(C(=O)N2CCC(Cc3ccccc3)CC2)Oc2cccnc21` (centres undefined) gave an RP-LC retention time of 1020 s.
`COC(=O)c1scc(-c2ccc(C)cc2)c1S(=O)(=O)N1CCN(c2ccccn2)CC1` had an RP-LC retention time of 807 s.
`COc1ccc2oc(-c3csc(NC(=O)c4c(F)cccc4F)n3)cc2c1` gave an RP-LC retention time of 1010 s.
As for `CC1=C(c2cccc(Cl)c2)S(=O)(=O)N=C1N1CCCN(C(=O)C2CC2)CC1`, the figure is 763 s; as for `CCc1cc(C(=O)N2CCN(C3CCN(C)CC3)CC2)nc2cc(-c3ccccn3)nn12`, 562 s.
Compound `O=C1CCCc2cc(S(=O)(=O)N3CCN(c4cccc(C(F)(F)F)c4)CC3)ccc2N1` showed an RP-LC retention time of 980 s.
`Cc1nc([C@@H]2CN(C(=O)c3cc(C)n(Cc4ccco4)c3C)C[C@H]2C(N)=O)n[nH]1` registered an RP-LC retention time of 618 s.
As for `CCN(CC)S(=O)(=O)c1ccc2c(c1)N(CC(=O)N1CCCCCC1)C(=O)C1CCCCN21` (centres undefined), the figure is 996 s; as for `COC(=O)C1=CN(c2cccc(OC)c2)c2ccccc2S1(=O)=O`, 776 s; as for `CCOc1ccc2nc(Nc3ncc4c(n3)CCCC4=O)nc(C)c2c1`, 588 s.
As for `CCCn1c(CCNC(=O)c2cccc(Cl)c2)nc2cccnc21`, the figure is 639 s; as for `CCNc1nc(C)cc(N2CCN(C(=O)Nc3cc(C)cc(C)c3)CC2)n1`, 702 s; as for `O=C(c1ccncc1)N1CCCC(c2nc(-c3ccc(F)cc3)n[nH]2)C1` (centres undefined), 614 s.
Compound `COc1ccc(-c2nc(C3CC(=O)N(c4ccc(OC)cc4)C3)no2)cc1` (centres undefined) showed an RP-LC retention time of 904 s.
With `Cc1c(Cl)cccc1S(=O)(=O)N1CCCC1c1nc(-c2cccc(F)c2)no1` (centres undefined), the RP-LC retention time amounted to 1220 s.
As for `COC(=O)c1c(NCc2cccnc2)c2cccc(Cl)c2[nH]c1=O`, the figure is 566 s; as for `O=C(NCCC1=CCCCC1)C(=O)NCC1CCN(Cc2ccccc2)CC1`, 593 s.
On to `Cc1ccc(C)c(C(=O)Nc2cnn(-c3ncc(N(C)C)cn3)c2)c1`, for which the RP-LC retention time was found to be 788 s.
`O=C(C1CCCO1)N1CCC(Cc2nncn2CC2CC2)CC1` (centres undefined) registered an RP-LC retention time of 578 s.
As for `Cc1ccc2c(c1)N(S(C)(=O)=O)CCC(C(=O)Nc1ccccc1Cl)O2` (centres undefined), the figure is 1030 s; as for `Cc1ccc(-c2nnc(Cc3nc(-c4cccnc4)no3)o2)cc1F`, 812 s; as for `COc1ccc(-c2cn3c(CC(=O)NCCc4cccs4)csc3n2)cc1OC`, 692 s.
For the compound `O=C(CNC(=O)c1cccc(Br)c1)NCc1cscn1`, the RP-LC retention time is 652 s.
Regarding `CC(Oc1ccc(Cl)cc1)C(=O)N1CCCN(c2cc(-c3ccc(Br)cc3)[nH]n2)CC1` (centres undefined), the RP-LC retention time came to 892 s.
As for `CCN1C=C(C(=O)OCc2cc(C)ccc2C)C(C)=NS1(=O)=O`, the figure is 1060 s; as for `CCC1CCCCN1CCCNC(=O)CCCn1c(=O)c2cccn2c2ccccc21` (centres undefined), 641 s; as for `COC(=O)Cn1c(=O)c(=O)n(CC(=O)OC)c2ccccc21`, 640 s.
Regarding `COc1ccc(NC(=O)c2nnc(COCC(=O)N3CCN(c4ccccn4)CC3)s2)cc1`, the RP-LC retention time is 610 s.
As for `CC(NC(=O)CCNc1c(-c2ccc(F)cc2)nc2cnccn12)c1ccccn1` (centres undefined), the RP-LC retention time worked out at 578 s.
`CCN1CCC2(CC1)N=C(c1ccc(F)cc1)CC(c1cc(Cl)ccc1O)N2` (centres undefined): the RP-LC retention time came out at 635 s.
For `OCC1CN(C2CCC2)CC12CCN(Cc1ccccc1F)CC2` (centres undefined), the RP-LC retention time is 591 s.
As for `CCNc1cc(N2CCCC(CCC(=O)NCCc3cccs3)C2)ncn1` (centres undefined), the figure is 639 s.
In turn, `O=C(CCC1CCCN(S(=O)(=O)c2ccc(F)cc2)C1)NC1CCS(=O)(=O)C1` (centres undefined) had an RP-LC retention time of 731 s.
Take `COc1ccc(-c2ncn3c2C(=O)N(CC(=O)O)CC3)cc1`: the RP-LC retention time came out at 567 s.
As to `CCOC(=O)Cn1nc2oc(=O)c(CCN3CCN(c4ccccc4OC)CC3)c(C)c2c1C`, the RP-LC retention time amounted to 726 s.
As for `O=[N+]([O-])c1cc(O)c(O)c([N+](=O)[O-])c1`, the figure is 730 s.
Regarding `Cc1cc(N2CCN(C(=O)COc3ccc(Cl)cc3)CC2)nc2nnc(C)n12`, the RP-LC retention time amounted to 637 s.
Regarding `CCc1ccccc1NC(=O)C1CCCN1S(=O)(=O)c1cc2c(cc1C)NC(=O)CO2` (centres undefined), the RP-LC retention time amounted to 821 s.
`c1ccc(-n2ncc3c(Nc4ccc5c(c4)OCO5)nc(N4CCOCC4)nc32)cc1`: the RP-LC retention time was determined as 1100 s.
As for `CSc1ncccc1C(=O)Nc1ccc2c(c1)CCC(=O)N2`, the figure is 638 s.
Then `CCn1c(=O)c(N2CCN(S(=O)(=O)c3ccc4c(c3)CCC4)CC2)nc2ccncc21`, with 748 s.
`COc1ccc(S(=O)(=O)N(C)CCCC(=O)O)cc1N(C)S(C)(=O)=O` returned an RP-LC retention time of 633 s.

(Values after the METLIN SMRT retention time set (Domingo-Almenara et al. 2019).)
